# Assay results reported in ChEMBL document CHEMBL1201862, “PubChem BioAssay data set” (2004).
# The source made the active and inactive calls.
# Legend:
# [1] = tested on: BJ; experiment: cells; type: functional, cell-based; details: Homo sapiens
# [2] = inhibitors of firefly luciferase expression or activity, dose response, H4 neuroglioma cells, luminescence (AID 1990); type: functional, cell-based
# [3] = tested on: HEK293; experiment: cells; type: functional, cell-based; details: Homo sapiens
# [4] = tested on: HEK293; experiment: NOD1 signaling inhibitors, primary screen, cell-based, luminescence, uHTS (AID 1578); type: functional; details: Homo sapiens
# [5] = tested on: HEK293; experiment: cells; type: functional, cell-based; details: Homo sapiens; remark: listed apart in the source
# [6] = tested on: HT-1080; experiment: cytotoxicity in HT1080 fibrosarcoma cells, cell-based, fluorescence readout (AID 620); type: functional; details: Homo sapiens
# [7] = tested on: BJ; experiment: cytotoxicity toward BJ-TERT-LT-ST fibroblasts, dose response, cell-based, RAS-independent, luminescence (AID 1935); type: functional; details: Homo sapiens;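 also: BJ fibroblasts immortalized with TERT plus LT and ST oncogenes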
# [8] = Luminescence-based dose response cell-based high throughput screening assay for cytotoxic compounds using the IEC-6 intestinal epithelial cell line. [Related pubchem assays: 1858 (Summary AID.), 1825 (Counterscreen.), 1907 (Confirmation screen.)]; type: functional
# [9] = tested on: HEK293; experiment: NOD2 signaling inhibitors in MDP-stimulated cells, cell-based, uHTS, luminescence (AID 2001); type: functional; details: Homo sapiens
# [10] = molecular target: Luciferin 4-monooxygenase (Photinus pyralis, UniProt P08659); experiment: Counter Screen for Luciferase-based Assay Positives. [Related pubchem assays: 620, 618, 411 ]
# [11] = tested on: BJ; experiment: cytotoxicity toward BJ-TERT fibroblasts, dose response, cell-based, RAS-independent, luminescence (AID 1933); type: functional; details: Homo sapiens
# [12] = cytotoxicity toward DRD oncogenic fibroblasts, dose response, cell-based, non-viral oncogenic, luminescence (AID 1934); type: functional; details: Homo sapiens
# [13] = molecular target: T1, Mannose-6-phosphate isomerase (Homo sapiens, UniProt P34949); experiment: human PMI inhibitors, high substrate, primary screen, biochemical, fluorescence intensity, high mannose 6-phosphate (AID 1220)
# T1 sequence (P34949 whole entry): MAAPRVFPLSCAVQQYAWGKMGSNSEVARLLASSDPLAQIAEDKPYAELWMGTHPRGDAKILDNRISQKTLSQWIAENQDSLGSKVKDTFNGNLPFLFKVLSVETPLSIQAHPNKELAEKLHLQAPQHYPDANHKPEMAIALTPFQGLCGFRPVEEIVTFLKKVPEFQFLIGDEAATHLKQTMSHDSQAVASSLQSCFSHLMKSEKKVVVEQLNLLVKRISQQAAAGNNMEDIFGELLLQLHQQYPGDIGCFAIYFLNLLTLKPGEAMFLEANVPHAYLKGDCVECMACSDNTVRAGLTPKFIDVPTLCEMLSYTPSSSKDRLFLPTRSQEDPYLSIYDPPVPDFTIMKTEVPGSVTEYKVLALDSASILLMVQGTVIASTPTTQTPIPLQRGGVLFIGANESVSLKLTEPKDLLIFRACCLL
# [14] = molecular target: Eukaryotic translation initiation factor 4E (Mus musculus, UniProt P63073); experiment: eIF4E–eIF4G protein interaction inhibitors, dose response, biochemical, TR-FRET (AID 855); type: functional;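 also: potency for disrupting eIF4E binding to eIF4GI seen as loss of FRET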
# [15] = molecular target: DNA dC->dU-editing enzyme APOBEC-3G (Homo sapiens, UniProt Q9HC16); experiment: Dose Response confirmation of small molecule APOBEC3G DNA Deaminase Inhibitors via a fluorescence-based single-stranded DNA deaminase assay. [Related pubchem assays (depositor defined):AID493012, AID493028]; type: functional
# [16] = molecular target: T1, Mannose-6-phosphate isomerase; experiment: inhibitors of human PMI, primary screen, biochemical, fluorescence intensity, coupled assay (AID 1209)
# [17] = molecular target: T2, Lysine-specific demethylase 4C (Homo sapiens, UniProt Q9H3R0); experiment: GASC-1 (JMJD2C) histone demethylase inhibitors, dose response, biochemical, DELFIA europium, cherry-picked samples (AID 488835); type: functional
# T2 sequence (Q9H3R0 whole entry): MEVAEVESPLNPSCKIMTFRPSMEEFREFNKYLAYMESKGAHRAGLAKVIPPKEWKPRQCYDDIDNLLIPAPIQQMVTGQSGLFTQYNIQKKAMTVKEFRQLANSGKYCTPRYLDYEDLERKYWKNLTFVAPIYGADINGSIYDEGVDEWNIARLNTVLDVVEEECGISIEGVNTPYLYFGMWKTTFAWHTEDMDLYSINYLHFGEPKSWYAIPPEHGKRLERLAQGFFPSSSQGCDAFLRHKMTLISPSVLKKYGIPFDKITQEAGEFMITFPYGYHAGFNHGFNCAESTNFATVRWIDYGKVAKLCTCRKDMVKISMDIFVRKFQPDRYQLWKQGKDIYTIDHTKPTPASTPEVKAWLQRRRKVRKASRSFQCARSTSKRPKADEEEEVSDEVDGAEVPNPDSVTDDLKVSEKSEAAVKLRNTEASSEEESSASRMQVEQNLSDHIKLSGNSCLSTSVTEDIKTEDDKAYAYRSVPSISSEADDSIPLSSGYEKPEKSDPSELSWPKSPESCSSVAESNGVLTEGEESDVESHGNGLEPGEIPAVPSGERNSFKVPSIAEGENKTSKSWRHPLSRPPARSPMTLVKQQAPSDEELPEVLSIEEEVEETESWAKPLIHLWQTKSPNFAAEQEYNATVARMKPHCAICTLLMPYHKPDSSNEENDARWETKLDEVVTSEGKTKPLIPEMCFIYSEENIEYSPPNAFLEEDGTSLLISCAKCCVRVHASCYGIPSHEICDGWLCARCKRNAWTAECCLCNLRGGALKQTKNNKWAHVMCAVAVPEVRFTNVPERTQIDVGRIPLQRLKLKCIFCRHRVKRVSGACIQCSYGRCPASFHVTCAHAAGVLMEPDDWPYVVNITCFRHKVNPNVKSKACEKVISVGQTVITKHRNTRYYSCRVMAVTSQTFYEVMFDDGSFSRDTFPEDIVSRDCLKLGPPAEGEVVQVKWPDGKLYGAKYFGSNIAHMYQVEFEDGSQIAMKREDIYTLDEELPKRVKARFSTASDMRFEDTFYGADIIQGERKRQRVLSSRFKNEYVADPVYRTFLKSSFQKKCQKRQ
# [18] = molecular target: Aspartyl aminopeptidase (Plasmodium falciparum 3D7, UniProt Q8I2J3); experiment: Counterscreen for inhibitors of M1 and M17 aminopeptidases: QFRET-based biochemical high throughput dose response assay for inhibitors of the Plasmodium falciparum M18 Aspartyl Aminopeptidase (PFM18AAP). [Related PubChem assays: 1619 (Screening assay (M17LAP inhibitors).), 1445 (Screening assay (M1AAP inhibitors).)]
# [19] = molecular target: Procathepsin L (Homo sapiens, UniProt P07711); experiment: cathepsin L inhibitors, dose response, counter-screen for M1/M17 aminopeptidase inhibitor project, biochemical, QFRET, 1536-well (AID 2214)
# [20] = molecular target: T3, Leucine aminopeptidase (Plasmodium falciparum 3D7, UniProt Q8IL11); experiment: P. falciparum M17LAP inhibitors, primary screen, biochemical, fluorogenic H-Leu-NHMec substrate, 1536-well (AID 1619); type: functional
# T3 sequence (Q8IL11 whole entry): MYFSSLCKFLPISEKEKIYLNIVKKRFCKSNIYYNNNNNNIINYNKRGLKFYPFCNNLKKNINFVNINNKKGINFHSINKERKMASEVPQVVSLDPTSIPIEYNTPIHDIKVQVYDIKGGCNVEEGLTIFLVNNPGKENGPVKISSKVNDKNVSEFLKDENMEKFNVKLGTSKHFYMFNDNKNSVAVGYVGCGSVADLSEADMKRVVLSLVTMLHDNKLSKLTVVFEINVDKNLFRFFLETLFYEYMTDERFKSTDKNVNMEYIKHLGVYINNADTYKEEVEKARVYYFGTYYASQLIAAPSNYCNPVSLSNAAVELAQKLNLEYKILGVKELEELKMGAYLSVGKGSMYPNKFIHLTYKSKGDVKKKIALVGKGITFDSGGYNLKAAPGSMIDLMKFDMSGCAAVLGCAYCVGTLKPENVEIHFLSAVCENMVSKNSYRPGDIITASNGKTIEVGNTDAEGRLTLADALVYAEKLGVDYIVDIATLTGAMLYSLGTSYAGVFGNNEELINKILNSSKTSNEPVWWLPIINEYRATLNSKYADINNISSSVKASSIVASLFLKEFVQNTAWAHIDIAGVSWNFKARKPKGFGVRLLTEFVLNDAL
# Sequence of DNA dC->dU-editing enzyme APOBEC-3G (Q9HC16 whole entry): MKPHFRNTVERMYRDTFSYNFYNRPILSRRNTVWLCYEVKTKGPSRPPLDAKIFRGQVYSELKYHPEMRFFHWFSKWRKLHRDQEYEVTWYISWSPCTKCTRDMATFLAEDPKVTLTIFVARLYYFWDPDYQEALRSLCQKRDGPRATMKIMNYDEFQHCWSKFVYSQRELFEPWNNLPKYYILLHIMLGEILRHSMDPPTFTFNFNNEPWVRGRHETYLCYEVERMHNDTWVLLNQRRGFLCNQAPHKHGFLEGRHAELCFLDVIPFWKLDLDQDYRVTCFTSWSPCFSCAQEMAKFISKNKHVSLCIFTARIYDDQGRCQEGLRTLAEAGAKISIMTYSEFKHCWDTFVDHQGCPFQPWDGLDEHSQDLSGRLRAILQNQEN
# Sequence of Eukaryotic translation initiation factor 4E (P63073 whole entry): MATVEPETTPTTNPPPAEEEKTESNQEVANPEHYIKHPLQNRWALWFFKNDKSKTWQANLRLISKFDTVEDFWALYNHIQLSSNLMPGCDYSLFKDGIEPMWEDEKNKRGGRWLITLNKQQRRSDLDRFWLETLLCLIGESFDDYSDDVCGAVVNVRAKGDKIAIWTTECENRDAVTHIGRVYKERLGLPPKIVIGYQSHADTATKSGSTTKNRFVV
# Sequence of Luciferin 4-monooxygenase (P08659 whole entry): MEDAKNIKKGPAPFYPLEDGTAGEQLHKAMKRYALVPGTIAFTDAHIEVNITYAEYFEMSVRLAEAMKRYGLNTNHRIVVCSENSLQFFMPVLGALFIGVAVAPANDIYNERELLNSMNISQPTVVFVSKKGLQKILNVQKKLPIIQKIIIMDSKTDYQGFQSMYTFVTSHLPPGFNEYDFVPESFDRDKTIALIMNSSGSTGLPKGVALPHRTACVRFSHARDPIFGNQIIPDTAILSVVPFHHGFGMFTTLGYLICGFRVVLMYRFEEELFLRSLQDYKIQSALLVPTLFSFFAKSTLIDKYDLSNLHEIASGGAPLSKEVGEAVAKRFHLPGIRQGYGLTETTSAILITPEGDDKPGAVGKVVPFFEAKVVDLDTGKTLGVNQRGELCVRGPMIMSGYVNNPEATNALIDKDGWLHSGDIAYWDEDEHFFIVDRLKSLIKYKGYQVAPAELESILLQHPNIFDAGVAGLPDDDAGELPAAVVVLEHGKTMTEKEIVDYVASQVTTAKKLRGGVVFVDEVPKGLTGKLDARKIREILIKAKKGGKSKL
# Sequence of Aspartyl aminopeptidase (Q8I2J3 whole entry): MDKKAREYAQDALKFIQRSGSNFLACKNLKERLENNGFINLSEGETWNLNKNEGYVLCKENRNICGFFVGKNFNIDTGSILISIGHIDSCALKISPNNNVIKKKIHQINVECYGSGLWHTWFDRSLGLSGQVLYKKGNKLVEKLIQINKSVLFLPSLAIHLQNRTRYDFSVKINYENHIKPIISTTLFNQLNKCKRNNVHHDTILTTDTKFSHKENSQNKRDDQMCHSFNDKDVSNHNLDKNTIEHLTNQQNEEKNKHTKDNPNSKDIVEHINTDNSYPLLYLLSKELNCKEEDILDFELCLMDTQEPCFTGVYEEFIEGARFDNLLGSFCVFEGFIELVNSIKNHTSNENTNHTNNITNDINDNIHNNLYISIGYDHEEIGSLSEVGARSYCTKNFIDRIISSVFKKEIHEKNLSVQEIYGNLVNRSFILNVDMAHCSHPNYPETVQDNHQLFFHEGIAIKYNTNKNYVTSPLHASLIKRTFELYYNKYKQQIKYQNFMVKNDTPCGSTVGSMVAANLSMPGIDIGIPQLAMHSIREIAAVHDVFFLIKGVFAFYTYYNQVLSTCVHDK
# Sequence of Procathepsin L (P07711 whole entry): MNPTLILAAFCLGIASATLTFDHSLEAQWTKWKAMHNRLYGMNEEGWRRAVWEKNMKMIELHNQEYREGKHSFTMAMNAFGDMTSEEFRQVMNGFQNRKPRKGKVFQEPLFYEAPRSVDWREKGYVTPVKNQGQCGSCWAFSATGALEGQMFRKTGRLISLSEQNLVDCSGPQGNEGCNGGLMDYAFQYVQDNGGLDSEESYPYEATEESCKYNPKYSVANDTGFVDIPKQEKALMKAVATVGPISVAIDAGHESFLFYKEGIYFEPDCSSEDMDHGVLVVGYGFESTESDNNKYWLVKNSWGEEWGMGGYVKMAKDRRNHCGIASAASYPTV
compound,measurement,setting,value
COc1cccc(Cn2c(NCc3cccnc3)nc3c2c(=O)n(C)c(=O)n3C)c1,EC50,[1],4.58 µM (inconclusive)
same,EC50,[2],12 µM (active)
same,IC50,[3],> 20 µM (inactive)
same,EC50,[4],> 20 µM (inactive)
same,IC50,[5],> 20 µM (inactive)
same,EC50,[6],> 50 µM (not active)
same,EC50,[7],> 150 µM (inconclusive)
same,IC50,[8],0.425 µM (active)
same,IC50,[9],14.6 µM (inactive)
same,EC50,[10],39.5 µM (active)
same,EC50,[11],> 150 µM (not active)
same,EC50,[12],5.5 µM (active)
COc1ccc(/N=c2\ssnc2Cl)cc1,IC50,[13],21.6 µM (active)
same,IC50,[14],43.2 µM (inactive)
same,IC50,[15],9.96 µM (active)
same,IC50,[16],14.4 µM (active)
same,AC50,[17],39.1 µM (active)
COc1cc(NC(=O)CSc2nc3ccccc3cc2C)c(C(=O)O)cc1OC,IC50,[18],> 73.5 µM (not active)
same,IC50,[19],> 59.6 µM (not active)
same,IC50,[20],1.57 µM (active)
